Test results taken from patent US20170122958A1, “Enzymes Functional Probes” (University of Dundee, priority 2013, published 2017).

Tests used:
[1] = tested on: WT and mutants (Leu to Ala, Leu to Val and Leu to Ile) of Brd2(2); assay: ITC of compound into protein (FIG. 16); assay type: binding, human; details: 250 μM compound into 25 μM protein; result in words
Protocol: To investigate the utility of the new compounds further, the inventors performed isothermal titration experiments by titrating 250 μM compound solutions (AL, ME-Am1, ET-Am1, ME-Am2, ET-Am2, 9-ME, 9-ET, 9-ME-Am1 and 9-ET-Am1) 25 μM protein solutions (WT and mutants (Leu to Ala, Leu to Val and Leu to Ile) of Brd2(2)).
ITC experiments were carried out on a ITC200 instrument from MicroCal™ Experiments were conducted at 3 different temperatures 15° C., 25° C. and 30° C., while stirring at 1000 rpm. Buffers of proteins, peptide and compounds were matched to 20 mM HEPES pH 7.5 at 25° C. and 100 mM NaCl. Frozen protein was buffer exchanged as described for the DSF experiments. Each titration comprised 1 initial injection of 0.4 μl lasting 0.8 s, followed by 19 injections of 2 μl lasting 4 s each at 2 min intervals. The initial injection was discarded during data analysis. Standard and reverse titrations were conducted depending on the binding partners.
All the data was fitted to a single binding site model using the Microcal LLC ITC200 Origin software provided by the manufacturer to yield enthalpies of binding (ΔH) and binding constants (Kas). Further thermodynamic parameters were calculated from these values (changes in entropy ΔS, changes in free energy AG and dissociation constants (Kds)).

Brd2(1)*(Met165-Leu) = target: T1, Brd2(1)*(Met165-Leu) (Homo sapiens, UniProt P25440, M165L); assay: DSF thermal shift; assay type: binding; details: mutant
T1 construct: Plasmids of the eight single BET bromodomain constructs Brd2(1), Brd2(2), Brd3(1), Brd3(2); His6 (N); made in house; host or cells: E. coli BL21(DE3)
T1 sequence (P25440 74-180 M165L limits assumed): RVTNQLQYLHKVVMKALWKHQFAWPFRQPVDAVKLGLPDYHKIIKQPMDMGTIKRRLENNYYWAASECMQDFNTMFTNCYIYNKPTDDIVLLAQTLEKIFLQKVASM
Protocol: (§1) DSF assays were performed on a LightCycler®480 from Roche or a Mx3005P Real Time PCR machine from Stratagene. Prior to DSF assays, frozen proteins were buffer exchanged using Vivaspin®6 concentrators with a 10 kDa cutoff on a Centrifuge 5430 from Eppendorf at a speed of 6000×g to remove glycerol and to buffer the proteins in 20 mM HEPES pH 7.5 at 25° C. and 100 mM NaCl. SYPRO®Orange from Invitrogen Molecular Probes® was used as a reporter dye to monitor the denaturing process of the proteins. Samples were assayed on a 96-well plate with final protein concentrations of 2 μM for the LightCycler®480 and 6 μM for Mx3005P. Compounds were added at a final concentration of 10 μM for the LightCycler®480 and 30 μM for Mx3005P, while the tetra acetylated histone peptide was added to a final concentration of 100 μM and 300 μM respectively. […] The temperature was raised with a step of 0.6° C. per minute from 37° C. to 95° C. with the LightCycler®480 collecting 39 measurements per ° C., and 1° C. per minute from 25° C. to 95° C. with Mx3005P, collecting fluorescence readings at the end of each interval. Each sample was run in triplicates.
(§2) Collected data was analysed by IGOR Pro 6, a scientific software tool from Wave Metrics, Inc. Analysis was done following the recommendations of Niesen et al.. Fluorescence intensity was plotted as a function of temperature, generating a sigmoidal curve described by a two-state transition from folded to unfolded protein. Curves were fitted by the following sigmoidal equation: […]
(§3) A1 and A2 are the values of minimum and maximum intensities, respectively, x0 is the inflection point and dx is the rate. Fitted curves were differentiated in IGOR Pro 6 and the maximum of the first derivative was identified using the same program. These values correspond to the inflection points of the transition curves and thus to the melting temperatures of the proteins (Tm).

Brd2(2)*(Met438-Leu) = target: T2, Brd2(2)*(Met438-Leu) (Homo sapiens, UniProt P25440, M438L); assay: DSF thermal shift; assay type: binding; details: mutant
T2 construct: Plasmids of the eight single BET bromodomain constructs Brd2(1), Brd2(2), Brd3(1), Brd3(2); His6 (N); made in house; host or cells: E. coli BL21(DE3)
T2 sequence (P25440 344-453 M438L limits assumed): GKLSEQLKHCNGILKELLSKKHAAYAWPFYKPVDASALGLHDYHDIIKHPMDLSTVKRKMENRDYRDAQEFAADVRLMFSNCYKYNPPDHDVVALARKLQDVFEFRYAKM
Protocol: as §1, §2, §3

Brd2(2)*(Met438-Ala) = target: T3, Brd2(2)*(Met438-Ala) (Homo sapiens, UniProt P25440, M438A); assay: DSF thermal shift; assay type: binding; details: mutant
T3 construct: Plasmids of the eight single BET bromodomain constructs Brd2(1), Brd2(2), Brd3(1), Brd3(2); His6 (N); made in house; host or cells: E. coli BL21(DE3)
T3 sequence (P25440 344-453 M438A limits assumed): as the sequence (P25440 344-453 M438L limits assumed) above, with L95A counted along it
Protocol: as §1, §2, §3

Brd2(1)*(Met165Ala) = Brd2(1)*(Met165Ala) (Homo sapiens, UniProt P25440, M165A); assay: DSF thermal shift; assay type: binding; set-up: Plasmids of the eight single BET bromodomain constructs Brd2(1), Brd2(2), Brd3(1), Brd3(2); His6 (N); made in house; host or cells: E. coli BL21(DE3); details: mutant
Sequence of Brd2(1)*(Met165Ala) (P25440 74-180 M165A limits assumed): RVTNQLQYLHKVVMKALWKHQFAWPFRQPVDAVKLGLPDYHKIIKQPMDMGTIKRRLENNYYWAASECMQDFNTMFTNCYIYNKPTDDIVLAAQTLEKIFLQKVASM
Protocol: as §1, §2, §3

Brd2(2) = target: T4, Brd2(2) (Homo sapiens, UniProt P25440); assay: DSF thermal shift; assay type: binding; details: wild type
T4 construct: Plasmids of the eight single BET bromodomain constructs Brd2(1), Brd2(2), Brd3(1), Brd3(2); His6 (N); made in house; host or cells: E. coli BL21(DE3)
T4 sequence (P25440 344-453 limits assumed): as the sequence (P25440 344-453 M438L limits assumed) above, with L95M counted along it
Protocol: as §1, with “Prior to DSF assays, frozen proteins were buffer exchanged using Vivaspin®6 concentrators with a 10 kDa cutoff on a Centrifuge 5430 from Eppendorf at a speed of 6000×g to remove glycerol and to buffer the proteins in 20 mM HEPES pH 7.5 at 25° C. and 100 mM NaCl.” left out
as §2, §3

Brd2(1) = target: T5, Brd2(1) (Homo sapiens, UniProt P25440); assay: DSF thermal shift; assay type: binding; details: wild type
T5 construct: Plasmids of the eight single BET bromodomain constructs Brd2(1), Brd2(2), Brd3(1), Brd3(2); His6 (N); made in house; host or cells: E. coli BL21(DE3)
T5 sequence (P25440 74-180 limits assumed): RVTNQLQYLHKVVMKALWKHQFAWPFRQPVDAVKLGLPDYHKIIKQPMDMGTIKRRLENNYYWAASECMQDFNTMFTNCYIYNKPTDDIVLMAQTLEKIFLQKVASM
Protocol: as §1, with “Prior to DSF assays, frozen proteins were buffer exchanged using Vivaspin®6 concentrators with a 10 kDa cutoff on a Centrifuge 5430 from Eppendorf at a speed of 6000×g to remove glycerol and to buffer the proteins in 20 mM HEPES pH 7.5 at 25° C. and 100 mM NaCl.” left out
as §2, §3

SMILES	Selectivity for Brd2(2) mutants relative to wild type by ITC (FIG. 16) [1]	ΔTm Brd2(1)*(Met165-Leu) (Brd2(1)*(Met165-Leu)) [K]	ΔTm Brd2(2)*(Met165-Leu) (Brd2(2)*(Met438-Leu)) [K]	ΔTm Brd2(2)*(Met165-Ala) (Brd2(2)*(Met438-Ala)) [K]	ΔTm Brd2(1)*(Met165-Ala) (Brd2(1)*(Met165Ala)) [K]	ΔTm Brd2(2) (Brd2(2)) [K]	ΔTm Brd2(1) (Brd2(1)) [K]
CCNC(=O)[C@H](C)[C@@H]1N=C(c2ccc(Cl)cc2)c2cc(OC)ccc2-n2c(C)nnc21 (racemic) [ME-Am1, (+−) (R)-2-((S)-6-(4-chlorophenyl)-8-methoxy-1-methyl-4H-benzo[f][1,2,4]triazolo[4,3-a][1,4]diazepin-4-yl)-N-ethylpropanamide]	higher selectivity for the mutants relative to wild types	–	–	–	–	–	–
CC[C@@H](C(=O)OC)[C@@H]1N=C(c2ccc(Cl)cc2)c2ccc(OC)cc2-n2c(C)nnc21 (racemic) [Compound 9-ET, (+−) methyl (R)-2-((S)-6-(4-chlorophenyl)-9-methoxy-1-methyl-4H-benzo[f][1,2,4]triazolo[4,3-a][1,4]diazepin-4-yl)butanoate]	higher selectivity for the mutants relative to wild types	–	–	–	–	–	–
C=CC[C@@H](C(=O)OC)[C@@H]1N=C(c2ccc(Cl)cc2)c2cc(OC)ccc2-n2c(C)nnc21 (racemic) [AL, (+−)methyl (R)-2-((S)-6-(4-chlorophenyl)-8-methoxy-1-methyl-4H-benzo[f][1,2,4]triazolo[4,3-a][1,4]diazepin-4-yl)pent-4-enoate]	higher selectivity for the mutants relative to wild types	–	–	–	–	–	–
CN1Cc2cc(NS(=O)(=O)c3ccc(C(C)(C)C)cc3)ccc2NC1=O [Compound 46, 4-(tert-butyl)-N-(3-methyl-2-oxo-1,2,3,4-tetrahydroquinazolin-6-yl)benzenesulfonamide]	–	0.1 ± 0.1	0.3 ± 0.2	2.5 ± 0.2	5.1 ± 0.2	0.8 ± 0.1	1.1 ± 0.2
COC(=O)[C@H](C)[C@@H]1N=C(c2ccc(Cl)cc2)c2ccc(OC)cc2-n2c(C)nnc21 (racemic) [Compound 9-ME, (+−) methyl (R)-2-((S)-6-(4-chlorophenyl)-9-methoxy-1-methyl-4H-benzo[f][1,2,4]triazolo[4,3-a][1,4]diazepin-4-yl)propanoate]	higher selectivity for the mutants relative to wild types	–	–	–	–	–	–
COc1ccc(S(=O)(=O)Nc2ccc3c(c2)CN(C)C(=O)N3)cc1 [Compound 47, 4-methoxy-N-(3-methyl-2-oxo-1,2,3,4-tetrahydroquinazolin-6-yl)benzenesulfonamide]	–	0.1 ± 0.3	1.3 ± 0.2	1.6 ± 0.3	0.0 ± 0.3	3.1 ± 0.4	2.4 ± 0.1
